Test results reported in ChEMBL document CHEMBL1155651, “New prenylated anthraquinones and xanthones from Vismia guineensis” (2000).

Experiments:
Type in all cases: functional, PBL
[1] = Antimitotic activity in human peripheral blood lymphocytes assessed as mitotic index at 0.5 uM
[2] = Antimitotic activity in human peripheral blood lymphocytes assessed as mitotic index at 25 uM
[3] = Antimitotic activity in human peripheral blood lymphocytes assessed as mitotic index at 1 uM

| Structure (SMILES) | Activity [1] | Activity [2] | Activity [3] |
| --- | --- | --- | --- |
| COC(C)(C)CCC/C(C)=C/COc1cc(O)c2c(c1)Cc1cc(C)cc(O)c1C2=O | 47.4% | 49.9% | 48.7% |
| CN[C@H]1CCc2cc(OC)c(OC)c(OC)c2-c2ccc(OC)c(=O)cc21 [DEMECOLCINE] | – | – | 70.1% |
| C[C@]12CC[C@@H]3c4ccc(OC(=O)N(CCCl)CCCl)cc4CC[C@H]3[C@@H]1CC[C@@H]2O [ESTRAMUSTINE] | – | – | 78.7% |
